IC50 data for 64 compounds are collected here from PubChem BioAssay AID485340 (Southern Research Specialized Biocontainment Screening …, 2010).

In the assay the test system is M. tuberculosis growth, meropenem IC50 shift with compound. The experiment in a line: confirmation, meropenem IC50 shift (AID 485340).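 Further: growth read after one week of culture plus overnight Alamar Blue.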
Setting [1] is: compound alone IC50 vs Mtb, compound dose (near its own IC50) 1.18 µM.
The mark [2] stands for this setting: compound dose (near its own IC50) 1.18 µM.
Where [3] appears, read: compound alone IC50 vs Mtb, compound dose (near its own IC50) 4.69 µM.
Setting [4] is: compound dose (near its own IC50) 4.69 µM.
[5] abbreviates: compound alone IC50 vs Mtb, compound dose (near its own IC50) 2.35 µM.
[6] abbreviates: compound dose (near its own IC50) 2.35 µM.
[7] abbreviates: compound alone IC50 vs Mtb, compound dose (near its own IC50) 9.38 µM.
Setting [8] is: compound dose (near its own IC50) 9.38 µM.
[9] abbreviates: compound alone IC50 vs Mtb, compound dose (near its own IC50) 0.59 µM.
Setting [10] is: compound dose (near its own IC50) 0.59 µM.
Where [11] appears, read: compound alone IC50 vs Mtb, compound dose (near its own IC50) 0.15 µM.
The mark [12] stands for this setting: compound dose (near its own IC50) 0.15 µM.

Active and inactive are the calls of the source. How the calls were made is not given here.

Turning to `O=C(NN=C(Cc1ccccc1)Cc1ccccc1)c1ccccc1F`, the IC50 is 1.64 µM under setting [1] and 4.28 µM (inactive) under setting [2].
Regarding `COc1cccc(NC(=O)C2CC2)c1`, the IC50 was 6.09 µM under setting [3] and 2.07 µM (inactive) under setting [4].
For `c1ccc(-n2c3ccccc3c3ccccc32)cc1`, the IC50 runs as follows: under setting [5], 3.27 µM; under setting [6], 7.17 µM (inactive).
The matching figures for `c1ccc(Nc2ncnc3c2oc2ccccc23)cc1`: 2 µM and 6.76 µM (inactive).
As to `Cc1cc(C)cc(NC(=O)c2cc(Cl)sc2Cl)c1`, the IC50 was 4.84 µM under setting [3] and 1.88 µM (inactive) under setting [4].
On to `CN(C)c1ccc(/C=C/c2nc3ccccc3s2)cc1`, for which the IC50 is, setting by setting: under setting [7], 8.97 µM; under setting [8], 3.55 µM (inactive).
Regarding `Cc1nnc(SCC2=C(C(=O)O)N3C(=O)C(NC(=O)COc4ccc(F)cc4)C3SC2)s1` (stereo not drawn), the IC50 under setting [5] came out at 1.74 µM and the IC50 under setting [6] is 1.04 µM (inactive).
For the compound `Cc1[nH]n(-c2ccccc2)c(=O)c1/C=N/NC(=O)c1ccoc1C`, the 50% inhibitory concentration (IC50) under setting [9] was 0.655 µM and the IC50 under setting [10] was 7.56 µM (inactive).
On to `CC1=Nc2ccccc2/C1=C\c1nc(-c2ccc(F)cc2)oc1O`, for which the 50% inhibitory concentration (IC50) under setting [3] turned out to be 3.73 µM and the IC50 under setting [4] was 4.02 µM (inactive).
On to `CCc1ccc(NC(=O)c2c(Cl)nc(C)c(Cl)c2C)cc1`, for which the concentration for half-maximal inhibition (IC50) is, setting by setting: under setting [7], 7.1 µM; under setting [8], 7.77 µM (inactive).
With `COc1ccc(/C=C/C(=O)N(C(C)C)C(C)C)cc1Br`, the IC50 is 5.89 µM under setting [3] and 4.03 µM (inactive) under setting [4].
For `C/C(=N\NC(N)=S)c1ccc(-n2ccnc2)cc1`, the IC50 is 6.58 µM under setting [7] and 3.97 µM (inactive) under setting [8].
Take `Cc1cc(NC(=O)/C=C/c2ccccc2Cl)n(-c2nc3ccccc3[nH]2)n1`: the IC50 is 1.94 µM under setting [5] and 5.88 µM (inactive) under setting [6].
Regarding `CCOc1cc(/C=N\Nc2ccc([N+](=O)[O-])cc2)ccc1OCC(=O)Nc1ccc(C)c(C)c1`, the IC50 is 5.99 µM under setting [3] and 4.01 µM (inactive) under setting [4].
For the compound `Cc1ccccc1OCC(=O)Nc1ccccc1-c1ccccc1`, the IC50 was 6.04 µM under setting [3] and 4.07 µM (inactive) under setting [4].
`CC(C)Cn1c2c(c(O)c(C(=O)Nc3nccs3)c1=O)CCCC2`: the IC50 under setting [5] worked out at 3.22 µM and the IC50 under setting [6] was 4.05 µM (inactive).
As for `Cc1nn(-c2ccccc2)cc1/C=N/NC(N)=S`, the IC50 is 3.7 µM under setting [3] and 2.68 µM (inactive) under setting [4].
`CCOC(=O)c1cnc2cc(-c3ccc(C(C)(C)C)cc3)nn2c1N`: the IC50 is, setting by setting: under setting [1], 0.899 µM; under setting [2], 7.5 µM (inactive).
The matching figures for `Cc1cc(C)c(OCC(=O)Nc2nc3ccccc3[nH]2)c(C)c1`: 1.22 µM and 7.24 µM (inactive).
As to `Cc1cc(C)n(-c2nc3ccccc3c(=O)n2OCC(=O)N(C)C)n1`, the IC50 is 7.74 µM under setting [7] and 4.61 µM (inactive) under setting [8].
For the compound `CCC(C(=O)NC1C(=O)N2C(C(=O)O)=C(CSc3nnc(C)s3)CSC12)c1ccccc1` (stereo not drawn), the IC50 was 0.587 µM under setting [9] and 1.99 µM (inactive) under setting [10].
Take `CCCN1C(=O)S/C(=C/c2ccc(N3CCOCC3)o2)C1=O`: the IC50 runs as follows: under setting [11], 0.2 µM; under setting [12], 5.45 µM (inactive).
Consider `COc1cccc(C(=O)C2CCCN(Cc3ccccn3)C2)c1` (stereo not drawn), for which the IC50 by setting is: under setting [1], 1.46 µM; under setting [2], 7.15 µM (inactive).
With `CCOC(=O)c1c(C)n(-c2ccccc2)c2ccc(OCCN(C)C)cc12`, the IC50 is, setting by setting: under setting [3], 5.45 µM; under setting [4], 4.08 µM (inactive).
On to `COC(=O)c1sc(-c2ccc(C(C)(C)C)cc2)cc1NC(=O)CCC(=O)O`, for which the IC50 is 1.37 µM under setting [1] and 7.19 µM (inactive) under setting [2].
As to `Cn1c(/C=N/c2nc3ccccc3[nH]2)nc2ccccc21`, the IC50 runs as follows: under setting [11], 0.2 µM; under setting [12], 6.15 µM (inactive).
Consider `O=c1oc(-c2ccccc2F)nc2scc(-c3ccccc3)c12`, for which the IC50 was 2.19 µM under setting [5] and 5.8 µM (inactive) under setting [6].
With `CCOc1ccc2c(c1)c(C(C)=O)c(C)n2-c1ccccc1`, the IC50 is 0.2 µM under setting [11] and 3.86 µM (inactive) under setting [12].
Consider `O=C(COc1ccc2ccccc2c1)Nc1nc2ccccc2[nH]1`, for which the IC50 runs as follows: under setting [3], 5.83 µM; under setting [4], 2.07 µM (inactive).
In the case of `Cc1onc(-c2c(Cl)cccc2Cl)c1/C(N)=N/OC(=O)C1CC1`, the IC50 is 2.05 µM under setting [5] and 1.02 µM (inactive) under setting [6].
The matching figures for `O=c1c(O)c(-c2ccc3c(c2)OCO3)oc2ccccc12`: 2.12 µM and 7.4 µM (inactive).
As to `CSc1nc(-c2ccc(Cl)cc2)nn1S(=O)(=O)c1ccccc1`, the IC50 reads like this: under setting [7], 9.85 µM; under setting [8], 4.13 µM (inactive).
For the compound `Cc1ccc(CC(=O)Nc2nc3ccccc3[nH]2)cc1C`, the IC50 is, setting by setting: under setting [3], 6.31 µM; under setting [4], 4.04 µM (inactive).
Turning to `O=C(Nc1cccc(Cl)c1N1CCOCC1)c1ccc([N+](=O)[O-])o1`, the IC50 is 0.909 µM under setting [1] and 7.42 µM (inactive) under setting [2].
Regarding `N#Cc1c(-c2cccs2)cc(-c2ccccn2)nc1N`, the half-maximal inhibitory concentration (IC50) by setting is: under setting [7], 6.92 µM; under setting [8], 0.73 µM.
With `NC(=S)N/N=C/c1ccc(/C=N/NC(N)=S)cc1`, the IC50 was 2.5 µM under setting [5] and 4.04 µM (inactive) under setting [6].
The matching figures for `COc1ccc2oc(C(=O)Nc3nc4ccccc4[nH]3)c(C)c2c1`: 1.7 µM and 3.58 µM (inactive).
Turning to `O=C(CCS(=O)(=O)c1ccc(F)cc1)Nc1nnc(-c2cccs2)o1`, the 50% inhibitory concentration (IC50) is 2.94 µM under setting [5] and 5.51 µM (inactive) under setting [6].
In the same order, the values of `Cc1ccc(OCC(=O)Nc2ccc3c4c(cccc24)CC3)c(C)c1` are 1.71 µM and 7.05 µM (inactive).
As for `COc1ccc2c(c1)c(C(C)=O)c(C)n2-c1ccccc1`, the half-maximal inhibitory concentration (IC50) is 0.336 µM (compound alone IC50 vs Mtb, compound dose (near its own IC50) 0.3 µM) and 7.65 µM (inactive) (compound dose (near its own IC50) 0.3 µM).
With `S=C(Nc1ccccc1)Nc1ccc(Cl)cn1`, the IC50 by setting is: under setting [3], 4.68 µM; under setting [4], 4.86 µM (inactive).
As to `Cc1c(OCc2ccc(C(=O)O)cc2)ccc2c(-c3ccccc3)cc(=O)oc12`, the IC50 under setting [5] is 1.42 µM and the IC50 under setting [6] is 2.62 µM (inactive).
As for `O=C(Cc1ccccc1Cl)Nc1nc2ccccc2[nH]1`, the IC50 runs as follows: under setting [7], 9.31 µM; under setting [8], less than 0.52 µM.
`COc1cccc(/C=N/NC(=O)CSCC(=O)Nc2ccccc2)c1O`: the IC50 is 5.41 µM under setting [3] and 3.28 µM (inactive) under setting [4].
`CCOC(=O)Cn1c(=NC(=O)C2CC2)sc2c(C)cc(C)cc21`: the IC50 is 9.84 µM under setting [7] and 3.54 µM (inactive) under setting [8].
Regarding `C=C1C(=O)O[C@@H]2[C@H]1[C@@H](OC(=O)/C(C)=C/C)C/C(C)=C\C(=O)/C=C(\C)[C@@H]2O`, the IC50 is, setting by setting: under setting [1], 1.24 µM; under setting [2], 6.46 µM (inactive).
As to `CCSc1nnc(NC(=O)C2Cc3ccccc3CN2C(=O)c2ccco2)s1` (stereo not drawn), the IC50 under setting [5] turned out to be 2.69 µM and the IC50 under setting [6] was 6.22 µM (inactive).
As for `O=C(CCN1c2ccccc2Sc2ccccc21)Oc1ccccc1`, the IC50 by setting is: under setting [7], 8.48 µM; under setting [8], 2.05 µM (inactive).
The matching figures for `CO/N=C(\C(=O)N[C@@H]1C(=O)N2C(C(=O)O)=C(COC(C)=O)CS[C@H]12)c1csc(N)n1` (stereo in doubt): 10.3 µM and 1.01 µM (inactive).
For `O=C1O/C(=C/c2ccccc2)N=C1c1ccccc1`, the IC50 under setting [1] worked out at 1.34 µM and the IC50 under setting [2] was 4.56 µM (inactive).
As for `COc1cccc(/C=N/NC(=O)c2cnccn2)c1O`, the IC50 under setting [5] was determined as 2.58 µM and the IC50 under setting [6] is 3.28 µM (inactive).
Take `COC(=O)c1c(C)n(-c2ccccc2)c2ccc(O)cc12`: the IC50 is, setting by setting: under setting [1], 1.53 µM; under setting [2], 6.07 µM (inactive).
Take `CC(=O)c1c(C)[nH]c(C(=O)OCC(=O)Nc2nnc(-c3ccccc3)o2)c1C`: the IC50 is, setting by setting: under setting [3], 4.19 µM; under setting [4], 7.02 µM (inactive).
`CCc1ccc2nc(/N=C(\N)NC(=O)c3ccccc3)nc(C)c2c1`: the IC50 under setting [1] was determined as 1.02 µM and the IC50 under setting [2] is 4.22 µM (inactive).
Regarding `NC(=S)N/N=C/c1ccc2ccccc2c1`, the IC50 under setting [5] stood at 2.02 µM and the IC50 under setting [6] is 1.95 µM (inactive).
For the compound `CCNC(=S)N/N=C1\C(=O)c2cccc3cccc1c23`, the IC50 is, setting by setting: under setting [3], 5.46 µM; under setting [4], 4.97 µM (inactive).
In the same order, the values of `COc1cccc(NC(=S)Nc2cc(C)cc(C)n2)c1` are 6.41 µM and 4.07 µM (inactive).
Take `COc1cc(C(=O)N/N=C/c2ccc(OC(=O)c3cccc(C)c3)cc2)ccc1O`: the IC50 by setting is: under setting [3], 4.54 µM; under setting [4], 4.14 µM (inactive).
On to `CC(C)CCN1CC(O)=C(c2nc3ccccc3[nH]2)C1=N`, for which the IC50 under setting [3] is 6.68 µM and the IC50 under setting [4] was 4.06 µM (inactive).
In the same order, the values of `Cc1ccc(-c2[nH][nH]c(=O)c(=O)c2N=Nc2ccccc2)cc1` are 4.12 µM and 4.07 µM (inactive).
Consider `COc1cc(/C(C)=N\NC(N)=S)cc(OC)c1OC`, for which the IC50 reads like this: under setting [7], 10.2 µM; under setting [8], 2.82 µM (inactive).
For the compound `Cc1ccc2[nH]c(O)c(N=Nc3nc4ccccc4s3)c2c1`, the IC50 under setting [3] was 6.76 µM and the IC50 under setting [4] is 5.1 µM (inactive).
As to `Nc1c2c(nc3sc4c(c13)CCCC4)-c1ccccc1CC2`, the IC50 by setting is: under setting [3], 6.11 µM; under setting [4], 6.03 µM (inactive).
Take `O=C(Nc1ccccc1)Nc1csc2ccccc12`: the IC50 under setting [11] was found to be 0.2 µM and the IC50 under setting [12] was 4.85 µM (inactive).

As usually defined, the IC50 is the concentration needed to halve the response being measured.
